From PubChem BioAssay AID330 (DTP/NCI, 2004)
Values joined by “and” are separate entries in the source; they are usually repeats but may differ in a detail not shown here. Equal entries are not always repeated. Toxic doses and inconclusive results are not listed. Square brackets hold non-standard residues; d marks the D form. Peptide text beside a SMILES is read from it. * marks the point of attachment. Cbz = O=C(OCc1ccccc1)*; Nva = CCC[CH](N)C(=O)O

System: P388 leukemia ip, CD2F1 mice, survival T/C
Assay: NCI In Vivo Anticancer Drug Screen. Data for tumor model P388 Leukemia (intraperitoneal) in CD2F1 (CDF1) mice
Conditions: endpoint: median survival time, higher = longer survival
Summary of the method: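 Mice carrying the transplanted tumor received test compound or vehicle. Survival was recorded in each group, and the value is the treated-group measurement divided by that of the vehicle-treated control group.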

[1] = dose: 50.0 mg/kg/injection, schedule: Q01DX005 (ip), vehicle: Klucel (hydroxypropylcellulose) (HPC)
[2] = dose: 100.0 mg/kg/injection, schedule: Q01DX005 (ip), vehicle: Klucel (hydroxypropylcellulose) (HPC)
[3] = dose: 200.0 mg/kg/injection, schedule: Q01DX005 (ip), vehicle: Klucel (hydroxypropylcellulose) (HPC)
[4] = dose: 50.0 mg/kg/injection, schedule: Q01DX009 (ip), vehicle: saline with Tween-80
[5] = dose: 100.0 mg/kg/injection, schedule: Q01DX009 (ip), vehicle: saline with Tween-80
[6] = dose: 200.0 mg/kg/injection, schedule: Q01DX009 (ip), vehicle: saline with Tween-80
[7] = dose: 60.0 mg/kg/injection, schedule: Q01DX005 (ip), vehicle: Klucel (hydroxypropylcellulose) (HPC)
[8] = dose: 60.0 mg/kg/injection, schedule: Q01DX005 (ip), vehicle: saline with Tween-80
[9] = dose: 120.0 mg/kg/injection, schedule: Q01DX005 (ip), vehicle: saline with Tween-80
[10] = dose: 100.0 mg/kg/injection, schedule: Q01DX001 (ip), vehicle: Klucel (hydroxypropylcellulose) (HPC)
[11] = dose: 50.0 mg/kg/injection, schedule: Q01DX005 (ip), vehicle: saline with Tween-80
[12] = dose: 100.0 mg/kg/injection, schedule: Q01DX005 (ip), vehicle: saline with Tween-80
[13] = dose: 200.0 mg/kg/injection, schedule: Q01DX005 (ip), vehicle: saline with Tween-80
[14] = dose: 240.0 mg/kg/injection, schedule: Q01DX005 (ip), vehicle: saline with Tween-80
[15] = dose: 120.0 mg/kg/injection, schedule: Q01DX005 (ip), vehicle: Klucel (hydroxypropylcellulose) (HPC)
[16] = dose: 240.0 mg/kg/injection, schedule: Q01DX005 (ip), vehicle: Klucel (hydroxypropylcellulose) (HPC)

COc1cccc2c1C(=O)c1c(O)c3c(c(O)c1C2=O)C[C@@](O)(C(C)=O)C[C@@H]3OC1CC(N(CCO)Cc2ccccc2)C(O)C(C)O1 (some centres undefined)
T/C (dose: 4.0 mg/kg/injection, schedule: Q04DX003 (ip), vehicle: water): 105 % of control
T/C (dose: 8.0 mg/kg/injection, schedule: Q04DX003 (ip), vehicle: water): 113 % of control
T/C (dose: 12.5 mg/kg/injection, schedule: Q04DX003 (ip), vehicle: water): 114 % of control
T/C (dose: 32.0 mg/kg/injection, schedule: Q04DX003 (ip), vehicle: water): 155 % of control
T/C (dose: 50.0 mg/kg/injection, schedule: Q04DX003 (ip), vehicle: water): 172 % of control
T/C (dose: 64.0 mg/kg/injection, schedule: Q04DX003 (ip), vehicle: water): 179 % of control
T/C (dose: 100.0 mg/kg/injection, schedule: Q04DX003 (ip), vehicle: water): 223 % of control
T/C (dose: 128.0 mg/kg/injection, schedule: Q04DX003 (ip), vehicle: water): 240 % of control
T/C (dose: 200.0 mg/kg/injection, schedule: Q04DX003 (ip), vehicle: water): 124 % of control

CCCC(NC(=O)OCc1ccccc1)C(=O)NC(CO)C(=O)O (centres undefined) (Cbz-[Nva]-Ser-OH; configuration not given here)
T/C [1]: 94 % of control
T/C [2]: 108 % of control
T/C [3]: 94 % of control

CC(=O)N1CCc2cc(N)ccc21
T/C [4]: 95 % of control
T/C [5]: 86 % of control
T/C [6]: 90 % of control

CC(C)CC1N=C(NN=C(CCl)CCl)OP1(=O)NCCCCCCNP1(=O)OC(NN=C(CCl)CCl)=NC1CC(C)C (centres undefined)
T/C [7]: 106 % of control

[N-]=[N+]=Nc1c2c(nc3ccccc13)CCCC2
T/C [8]: 103 % of control
T/C [9]: 105 % of control

O=c1cc(-c2ccc(OCc3ccccc3)cc2)oc2c(-c3c(OCc4ccccc4)cc(OCc4ccccc4)c4c(=O)cc(-c5ccc(OCc6ccccc6)cc5)oc34)c(OCc3ccccc3)cc(OCc3ccccc3)c12
T/C [10]: 95 % of control
T/C (dose: 200.0 mg/kg/injection, schedule: Q01DX001 (ip), vehicle: Klucel (hydroxypropylcellulose) (HPC)): 92 % of control
T/C (dose: 400.0 mg/kg/injection, schedule: Q01DX001 (ip), vehicle: Klucel (hydroxypropylcellulose) (HPC)): 103 % of control

O=C1c2ccccc2C(=O)N1/N=[N+](\[O-])N1CCOCC1
T/C (dose: 25.0 mg/kg/injection, schedule: Q01DX005 (ip), vehicle: Klucel (hydroxypropylcellulose) (HPC)): 90 % of control
T/C [1]: 99 % of control
T/C [2]: 90 % of control
T/C [3]: 101 % of control

COc1cc2c(cc1C(C)c1ccc(Br)cc1)OCO2 (centres undefined)
T/C [11]: 96 % of control
T/C [12]: 103 % of control
T/C [13]: 100 % of control

O=[N+]([O-])c1ccc(NCc2ccccc2)nc1
T/C [4]: 107 % of control
T/C [5]: 117 % of control
T/C [6]: 112 % of control

NC(=O)C1C=CN(Cc2ccccc2)C=C1
T/C (dose: 30.0 mg/kg/injection, schedule: Q01DX005 (ip), vehicle: saline with Tween-80): 105 % of control and 106 % of control
T/C [8]: 108 % of control and 111 % of control and 123 % of control
T/C [9]: 117 % of control and 118 % of control
T/C [14]: 108 % of control and 123 % of control

CCCCC(CC)C(=O)[O][Sn]([CH2]CCC)([CH2]CCC)[O]C(=O)C(CC)CCCC (centres undefined)
T/C (dose: 1.5 mg/kg/injection, schedule: Q01DX009 (ip), vehicle: saline sonified): 104 % of control
T/C (dose: 3.0 mg/kg/injection, schedule: Q01DX009 (ip), vehicle: saline sonified): 95 % of control
T/C (dose: 6.0 mg/kg/injection, schedule: Q01DX009 (ip), vehicle: saline sonified): 118 % of control

C=C(C)C(=O)OC1C2C(=C)C(=O)OC2CC(C)C2OC2C(=O)C(C)(O)C1OC(=O)C(=C)C (centres undefined)
T/C (dose: 12.5 mg/kg/injection, schedule: Q04DX002 (ip), vehicle: Klucel (hydroxypropylcellulose) (HPC)): 110 % of control
T/C (dose: 25.0 mg/kg/injection, schedule: Q04DX002 (ip), vehicle: Klucel (hydroxypropylcellulose) (HPC)): 110 % of control
T/C (dose: 50.0 mg/kg/injection, schedule: Q04DX002 (ip), vehicle: Klucel (hydroxypropylcellulose) (HPC)): 107 % of control

Cc1cccc(/C=C/C(=O)C(C)CN(C)C)c1 (centres undefined)
T/C (dose: 15.0 mg/kg/injection, schedule: Q01DX005 (ip), vehicle: saline): 98 % of control
T/C (dose: 30.0 mg/kg/injection, schedule: Q01DX005 (ip), vehicle: saline): 105 % of control
T/C (dose: 60.0 mg/kg/injection, schedule: Q01DX005 (ip), vehicle: saline): 107 % of control and 116 % of control

CCN(CC)CCCC(C)N1CC2CCCCC2C1 (centres undefined)
T/C [11]: 106 % of control
T/C [12]: 108 % of control
T/C [13]: 107 % of control

Cc1ccc(S(=O)(=O)c2cnc(N3CCN(C)CC3)nc2N)cc1
T/C (dose: 100.0 mg/kg/injection, schedule: Q04DX002 (ip), vehicle: saline): 100 % of control
T/C (dose: 200.0 mg/kg/injection, schedule: Q04DX002 (ip), vehicle: saline): 100 % of control
T/C (dose: 400.0 mg/kg/injection, schedule: Q04DX002 (ip), vehicle: saline): 93 % of control

c1cc2onc3c4cccc5onc(c(c1)c23)c54
T/C (dose: 8.75 mg/kg/injection, schedule: Q01DX005 (ip), vehicle: Klucel (hydroxypropylcellulose) (HPC)): 99 % of control
T/C (dose: 17.5 mg/kg/injection, schedule: Q01DX005 (ip), vehicle: Klucel (hydroxypropylcellulose) (HPC)): 93 % of control
T/C (dose: 35.0 mg/kg/injection, schedule: Q01DX005 (ip), vehicle: Klucel (hydroxypropylcellulose) (HPC)): 99 % of control

CCC1CCCC[N+]1(C)[B-](F)(F)F (centres undefined)
T/C (dose: 50.0 mg/kg/injection, schedule: Q01DX005 (ip), vehicle: saline): 105 % of control
T/C (dose: 100.0 mg/kg/injection, schedule: Q01DX005 (ip), vehicle: saline): 107 % of control

O=C1CC(c2ccc(Cl)cc2)C(c2ccc(Cl)cc2)C1=O (centres undefined)
T/C (dose: 6.25 mg/kg/injection, schedule: Q01DX001 (ip), vehicle: Klucel (hydroxypropylcellulose) (HPC)): 107 % of control
T/C (dose: 12.5 mg/kg/injection, schedule: Q01DX001 (ip), vehicle: Klucel (hydroxypropylcellulose) (HPC)): 112 % of control
T/C (dose: 25.0 mg/kg/injection, schedule: Q01DX001 (ip), vehicle: Klucel (hydroxypropylcellulose) (HPC)): 106 % of control and 86 % of control
T/C [10]: 99 % of control

O=C(Nc1ccc(C(=O)O)cc1)Nc1cc(C(F)(F)F)ccc1Cl
T/C [8]: 105 % of control
T/C [9]: 105 % of control
T/C [14]: 105 % of control

CC(=O)OCC1(C)ON=C2CCCCC21 (centres undefined)
T/C (dose: 100.0 mg/kg/injection, schedule: Q01DX001 (ip), vehicle: saline with Tween-80): 94 % of control
T/C (dose: 200.0 mg/kg/injection, schedule: Q01DX001 (ip), vehicle: saline with Tween-80): 104 % of control
T/C (dose: 400.0 mg/kg/injection, schedule: Q01DX001 (ip), vehicle: saline with Tween-80): 94 % of control

O=C1/C(=C/c2ccccc2)CNC/C1=C\c1ccccc1
T/C [7]: 102 % of control
T/C [15]: 111 % of control
T/C [16]: 116 % of control

Cc1cc(C)c2c(=O)n(C)c(=O)n(C)c2n1
T/C [4]: 89 % of control
T/C [5]: 94 % of control
T/C [6]: 103 % of control

N#Cc1c(-c2ccc(Cl)cc2)cn2c1[nH]c(=O)c1ccccc12
T/C [8]: 107 % of control
T/C [9]: 102 % of control
T/C [14]: 96 % of control

C=C1C(=O)OC2/C=C(\C)C3OC3/C=C(/C(=O)OC)C(OC(C)=O)C(OC(=O)C(C)(O)C(C)OC(C)=O)C12 (centres undefined)
T/C (dose: 1.5 mg/kg/injection, schedule: Q01DX009 (ip), vehicle: Klucel (hydroxypropylcellulose) (HPC)): 114 % of control
T/C (dose: 12.0 mg/kg/injection, schedule: Q01DX009 (ip), vehicle: Klucel (hydroxypropylcellulose) (HPC)): 106 % of control

Fc1cccc2c(SCCCCCCSc3c4ccccc4nc4c(F)cccc34)c3ccccc3nc12
T/C [7]: 89 % of control
T/C [15]: 89 % of control
T/C [16]: 90 % of control

Cc1nc2ccc3c(ccc4nc(C)c(N=Nc5ccc(C(=N)N)cc5)c(O)c43)c2c(O)c1N=Nc1ccc(C(=N)N)cc1
T/C [11]: 114 % of control
T/C [12]: 116 % of control
T/C [13]: 116 % of control

CNc1nc2c(N)ncnc2n1C1OC(CO)C(O)C1O (centres undefined)
T/C (dose: 6.25 mg/kg/injection, schedule: Q01DX009 (ip), vehicle: suspension in saline): 94 % of control
T/C (dose: 12.5 mg/kg/injection, schedule: Q01DX009 (ip), vehicle: suspension in saline): 112 % of control
